Experimental data as given in patent US20100331269A1, “TRITERPENES DERIVATIVES AND USES THEREOF AS ANTITUMOR AGENTS OR ANTI-INFLAMMATORY AGENTS” (priority 2006, published 2010).
Marks after values point to notes of the source that are not given here.

Experiments:
[1] = system: PC-3 human prostate adenocarcinoma cells; test: Cytotoxicity, resazurin metabolism assay, PC-3; format: cell-based; settings: mean ± SD
Description: (§1) Human lung carcinoma (A-549), human colon adenocarcinoma (DLD-1), human normal fibroblasts (WS1), mice melanoma (B16-F1), Human glioma (U-251), Human hepatocellular carcinoma (HEP G2), Human prostate adenocarcinoma (PC-3), Human ovary teratocarcinoma metastatic (PA-1), Human breast adenocarcinona metastatic (MDA-MB-231), Human breast adenocarcinoma (MCF-7) and Human malignant melanoma (SK-MEL-2) cell lines were obtained from the American Type Culture Collection (ATCC). All cell lines were cultured in minimum essential medium containing Earle's salts and L-glutamine (Mediatech Cellgro, Va.), to which was added 10% fetal bovine serum (Hyclone), vitamins (1×), penicillin (100 I.U./mL) and streptomycin (100 μg/mL), essential amino acids (1×) and sodium pyruvate (1×) (Mediatech Cellgro, Va.). Cells were kept at 37° C. in a humidified environment containing 5% CO2.
(§2) Exponentially growing cells were plated in 96-well microplates (Costar, Corning Inc.) at a density of 5×10^3 cells per well in 100 μL of culture medium and were allowed to adhere for 16 hours before treatment. Increasing concentrations of each compound in DMSO (Sigma-Aldrich) were then added (100 μL per well) and the cells were incubated for 48 h. […] Cytotoxicity was assessed using resazurin (O'Brien, J. et al., Eur. J. Biochem. 2000, 267, 5421-5426) on an automated 96-well Fluoroskan Ascent F1™ plate reader (Labsystems) using excitation and emission wavelengths of 530 nm and 590 nm, respectively. Fluorescence was proportional to the cellular metabolic activity in each well. Survival percentage was defined as the fluorescence in experimental wells compared to that in control wells after subtraction of blank values. Each experiment was carried out three times in triplicata. IC50 results were expressed as mean±standard deviation.
(§3) Compounds presented in Table 5 below were also tested in the following tumour cell lines: U-251 (Human glioma), HEP G2 (Human hepatocellular carcinoma), PC-3 (Human prostate adenocarcinoma), PA-1 (Human ovary teratocarcinoma metastatic), MDA-MB-231 (Human breast adenocarcinona metastatic), MCF-7 (Human breast adenocarcinoma) and SK-MEL-2 (Human malignant melanoma).

[2] = system: Hep G2 human hepatocellular carcinoma cells; test: Cytotoxicity, resazurin metabolism assay, Hep G2; format: cell-based; settings: mean ± SD
Description: as §1, §2, §3

B16-F1 cells = test: Cytotoxicity, Hoechst DNA assay, B16-F1; format: cell-based, mouse; settings: ± SD
Summary of the method: (§4)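 Cells grown at 37 °C, 5% CO2, in MEM with 10% FBS. Compound cytotoxicity was measured by Hoechst DNA staining. Activity is expressed as IC50, the concentration inhibiting 50% of cell growth.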

Lewis lung carcinoma = test: In vivo antitumoral activity against Lewis lung cancer-bearing mice; parameters: species or system C57BL/6 mouse; settings: day 13
Description: Cell lines and mice preparation: The Lewis lung carcinoma cell lines (#CRL-1642, lot # 4372266, ATCC) and the C57BL/6 mouse strain (Charles River Inc., St-Constant, Qc) were used. Cells were grown to 90% confluence in complete DMEM medium containing Earle's salts and L-glutamine (Mediatech Cellgro, Va.), 10% foetal bovine serum (Hyclone), vitamins (1×), penicillin (100 I.U./mL) and streptomycin (100 μg/mL), essential amino acids (1×) and sodium pyruvate (1×) (Mediatech Cellgro, Va.). Cells were then harvested with up and down only. Cells were counted using a hemacytometer and resuspended in DMEM medium without SVF. 100 μL of a solution containing 1×10^7 cells/mL was inoculated subcutaneously in the right flank of each 6 weeks old mouse on day zero.
The experimental mice were weighed daily.
Data analysis: In vivo antitumor activity was evaluated according to the parameters as follows (Miot-Noirault, E. et al. Invest. New Drugs 2004, 22, 369-378):
(a) Calculated tumour weight (CTW): The CTW of each tumour was estimated from two-dimensional measurements performed once a day with a slide calliper, according to the formula: CTW (mg)=(L×W^2)/2 with L=length in mm and W=width in mm. Differences in CTW between treated and control groups (DMSO) were analyzed for significance using the U Wilcoxon-Mann-Whitney test and Student t-test. Values of p<0.05 were considered statistically significant.
(b) Treated/Control value (T/C) and Tumour Growth Inhibition (TGI):The T/C was calculated as the ratio of the mean CTW of TW of drug-treated mice versus controls: T/C=(CTW of the drug-treated group on Day X/CTW of the control group on Day X)×100. TGI is 100−(T/C) value.

[3] = system: MCF-7 human breast adenocarcinoma cells; test: Cytotoxicity, resazurin metabolism assay, MCF-7; format: cell-based; settings: mean ± SD
Description: as §1, §2, §3

WS-1 cells = test: Cytotoxicity, Hoechst DNA assay, WS-1; format: cell-based, human; settings: ± SD
Summary of the method: as §4

[4] = system: MDA-MB-231 human breast adenocarcinoma cells; test: Cytotoxicity, resazurin metabolism assay, MDA-MB-231; format: cell-based; settings: mean ± SD
Description: as §1, §2, §3

[5] = system: SK-Mel-2 human melanoma cells; test: Cytotoxicity, resazurin metabolism assay, SK-Mel-2; format: cell-based; settings: mean ± SD
Description: as §1, §2, §3

With `C=C(C)[C@@H]1CC[C@]2(C(=O)O)CC[C@]3(C)[C@H](CC[C@@H]4[C@@]5(C)CC[C@H](O[C@@H]6O[C@@H](C)[C@H](O)[C@@H](O)[C@H]6O)C(C)(C)[C@@H]5CC[C@]43C)[C@@H]12` [Compound 22, 3-O-α-L-Rhamnopyranoside of betulinic acid] the IC50 [1] was 20 ± 6 µM, the IC50 [2] was 20 ± 2 µM and the IC50 (B16-F1 cells) was 4.2 ± 0.5 µM. The “CTW (calculated tumour weight)” value (Lewis lung carcinoma; 50 mg/kg IP every 3-4 days) was 297 ± 98 mg, the “T/C (Treated/Control)” value (Lewis lung carcinoma; 50 mg/kg IP) was 91% and the “TGI (Tumour Growth Inhibition)” value (Lewis lung carcinoma; 50 mg/kg IP) was 9%. The “CTW (calculated tumour weight)” value (Lewis lung carcinoma; 100 mg/kg IP every 3-4 days) was 178 ± 53^e mg, the “T/C (Treated/Control)” value (Lewis lung carcinoma; 100 mg/kg IP) was 55% and the “TGI (Tumour Growth Inhibition)” value (Lewis lung carcinoma; 100 mg/kg IP) was 45%. The “CTW (calculated tumour weight)” value (Lewis lung carcinoma; 200 mg/kg IP every 3-4 days) was 192 ± 50^e mg, the “T/C (Treated/Control)” value (Lewis lung carcinoma; 200 mg/kg IP) was 59% and the “TGI (Tumour Growth Inhibition)” value (Lewis lung carcinoma; 200 mg/kg IP) was 41%. The IC50 [3] was 16 ± 2 µM, the IC50 (WS-1 cells) was 38 ± 6 µM and the IC50 [4] was 19 ± 2 µM. The IC50 [5] was 20 ± 7 µM.
